The source of these data is PubChem BioAssay (NCI).

Each structure is given as a SMILES string.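 Five compound concentrations were applied to cells in 96-well plates for 48 hours; endpoints were derived by simple linear interpolation of the resulting dose-response curve. The concentration for full growth arrest is given as TGI.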 A value given as a limit tells only on which side of the number the result lay.

What all share (assay): inhibition of tumour cell growth, NCI panel, 48 h
Test [1] deals with A549 NSCLC.
Test [2] relates to COLO 205 colon.
Test [3] relates to HCT-15 colon.
Test [4] concerns MDA-N.
Test [5] concerns MOLT-4 leukemia.
The subject of test [6] is RXF 393 renal.
In test [7] the test system is SK-OV-3 ovarian.
For test [8], the system named is SNB-75 CNS.
Test [9] deals with SW-620 colon.
Test [10] has as its system T-47D breast.

As for `COc1ccc(NC(=O)CC(=O)N2N=C(C)C(N=Nc3ccc(S(=O)(=O)c4ccc(N=NC5C(=O)N(C(=O)CC(=O)Nc6ccc(OC)cc6)N=C5C)cc4)cc3)C2=O)cc1` (stereo not drawn), the TGI in test [1], in test [2], in test [3], in [4], in [5] and in [6] was greater than 100 µM in each case. In addition, the TGI in [7], in test [8], in [9] and in test [10] was greater than 100 µM each time.
For the compound `O=c1oc2ccccc2cc1/C=N/N1C(=S)N(c2ccccc2)C(=Nc2ccccc2)C1=Nc1ccccc1`, the TGI in [1], in test [2], in test [3], in [4], in test [5] and in test [6] was greater than 100 µM each time. For the same compound, the TGI in test [7], in test [8], in [9] and in [10] was greater than 100 µM throughout.
For the compound `Cc1cc(C)c(C2=NOC(c3ccccc3)(c3cc(=O)n(-c4ccccc4)s3)O2)c(C)c1` (stereo not drawn), the TGI was greater than 100 µM in [1]; 63.4 µM in [2]; 41 µM in test [3]; greater than 100 µM in [4]; greater than 100 µM in [5]; 33.3 µM in test [6]. The TGI in test [7] is greater than 100 µM; in test [8], greater than 100 µM; in test [9], greater than 100 µM; in test [10] it was 44 µM.
Turning to `CN(/N=C(\C(=O)O)c1ccccc1)C1=NCCCN1`, the TGI in [1], in [2], in test [3], in [4], in [5] and in [6] was greater than 100 µM each time. Also, the TGI in [7], in [8], in [9] and in test [10] was greater than 100 µM in each case.
As for `COc1nc2c(c(=O)n1C)N(C(C)=O)C1C(N2)OCC(OC(C)=O)C1OC(C)=O` (stereo not drawn), the TGI in test [1], in [2], in [3], in test [4], in test [5] and in test [6] was greater than 10 µM each time. In addition, the TGI in test [7], in [8], in test [9] and in test [10] was greater than 10 µM throughout.
On to `CC(=O)Nc1ccccc1SCCSSCCSc1ccccc1NC(C)=O`, for which the TGI was 69.8 µM in [1]; 40.5 µM in test [2]; 42.2 µM in test [3]; 68.7 µM in test [4]; greater than 100 µM in test [5]; greater than 100 µM in [6]. Also, the TGI in [7] was 61.7 µM; in test [8], 73.2 µM; in [9], greater than 100 µM; in test [10], 92.9 µM.
With `Cc1ccc(-c2nc3ccc(Cl)cc3[nH]2)cc1`, the TGI in test [1], in [2], in test [3], in [4], in [5] and in [6] was greater than 100 µM throughout. In addition, the TGI in test [7], in test [8], in test [9] and in [10] was greater than 100 µM in each case.
`CC1CCCc2c(C#N)c(N)nc(-c3ccc(Cl)cc3)c21` (stereo not drawn): the TGI is 67.7 µM in test [2]; greater than 100 µM in test [3]; 93.9 µM in test [4]; 43.2 µM in test [5]; 21.5 µM in test [6]; greater than 100 µM in test [7]. For the same compound, the TGI in test [8] was 81.6 µM; in [9] it was greater than 100 µM; in [10], 74.5 µM.
Turning to `O=C(NCc1cccnc1)NCc1cccnc1`, the TGI in test [1], in test [2], in [3], in [4], in test [6] and in [7] was greater than 100 µM throughout. In addition, the TGI in test [8], in test [9] and in test [10] was greater than 100 µM throughout.
Turning to `CC1=NN(c2ccccc2)C(=O)/C1=C/c1ccc(O)cc1`, the TGI in test [1], in test [2], in test [3], in test [4], in [5] and in test [6] was greater than 100 µM each time. Also, the TGI in test [7], in test [9] and in test [10] was greater than 100 µM each time.
In the case of `CCOC(=O)c1c(N2CCCC2)nsc1Nc1ccccc1`, the TGI in [1], in [2], in [3], in [4], in [5] and in test [6] was greater than 100 µM each time. Further, the TGI in test [8], in [9] and in test [10] was greater than 100 µM each time.
Turning to `N#CC(C#N)=Cc1ccc2c(c1)OC(Cl)O2` (stereo not drawn), the TGI in [1] is greater than 100 µM; in test [2], 52 µM; in [3], 46.4 µM; in test [4] it was 35.2 µM; in test [5] it was greater than 100 µM; in test [6], 52.3 µM. The TGI was 61.5 µM in test [7], 75.4 µM in test [8] and greater than 100 µM in [10].
On to `CN(C)c1ccc(N=Nc2ccc3nc[nH]c3c2)cc1`, for which the TGI is greater than 100 µM in test [1]; 50.4 µM in test [2]; 70.4 µM in [3]; greater than 100 µM in test [4]; greater than 100 µM in [5]; 88.7 µM in test [6]. The TGI in test [8] is 68.9 µM; in test [9], greater than 100 µM; in test [10] it was greater than 100 µM.
Regarding `COc1c2c(cc3oc(C)cc(=O)c13)OC(=N)C(C(N)=O)C2CC(=O)c1ccc(N)cc1` (stereo not drawn), the TGI in [1], in test [2], in [3], in test [4], in [5] and in test [6] was greater than 100 µM throughout. Moreover, the TGI in [8], in test [9] and in test [10] was greater than 100 µM throughout.
